Source: patent US20030055046A1, “Novel pyrido cyclohexenyl phenyl carboxamides tocolytic oxytocin receptor antagonists” (Wyeth, priority 2001, published 2003)
Structures can show the parent of a compound that is named as a salt.

melting point: 138 to 177 °C
Structure (SMILES): COc1cc(C2=CCCCC2)c(Cl)cc1C(=O)N1Cc2ccc(C(=O)N(C)Cc3cccnc3)n2Cc2ccccc21 (as salt: tartaric acid salt) (hydrate or solvate) [Example 2, 10-(5-Chloro-4-cyclohex-1-en-1-yl-2-methoxybenzoyl)-N-methyl-N-(pyridin-3-ylmethyl)-10,11-dihydro-5H-pyrrolo[2,1-c][1,4]benzodiazepine-3-carboxamide L-(+)-tartaric acid salt hemihydrate]
